This is an account of results in ChEMBL document CHEMBL1138435, “A novel antibacterial iridoid and triterpene from Caiophora coronata” (2003).

For one test, the system named is Enterococcus faecium. The test is described as follows: Antimicrobial activity against vancomycin-resistant Enterococcus faecium 379 after 18 hrs by twofold serial microbroth dilution method. The following applies: Enterococcus faecium, 379, 18 h. The test is classed as functional.
The test system of a further test is Candida albicans. Put plainly: Antimicrobial activity against Candida albicans 54 after 18 hrs by agar diffusion method. The test is classed as functional. In general terms: A growth-free zone around the sample is the usual read-out of agar diffusion tests.
In test [1] the test system is Staphylococcus aureus. The test is described as follows: Antimicrobial activity against methicillin-sensitive Staphylococcus aureus 375 after 18 hrs by twofold serial microbroth dilution method. The test is classed as functional. The following applies: Staphylococcus aureus, 375, 18 h. On the technique in general: In broth dilution the organism is exposed to a series of concentrations in liquid medium.

The test system of test [2] is Staphylococcus aureus. The test is described as follows: Antimicrobial activity against methicillin-resistant Staphylococcus aureus 310 after 18 hrs by twofold serial microbroth dilution method. The test is classed as functional. The conditions noted are these: Staphylococcus aureus, 310, 18 h.
Another test concerns Bacillus subtilis. Put plainly: Antimicrobial activity against Bacillus subtilis 327 after 18 hrs by twofold serial microbroth dilution method. It is filed as functional. The conditions noted are these: Bacillus subtilis, 327, 18 h.
Test [3] deals with Escherichia coli. The test is described as follows: Antimicrobial activity against Escherichia coli 442 after 18 hrs by agar diffusion method. It is filed as functional, organism-based.
In test [4] the test system is Escherichia coli. The test is described as follows: Antimicrobial activity against Escherichia coli 389 after 18 hrs by twofold serial microbroth dilution method. The following applies: Escherichia coli, 389, 18 h. It is filed as functional.
Test [5] concerns Escherichia coli. Put plainly: Antimicrobial activity against Escherichia coli 442 after 18 hrs by twofold serial microbroth dilution method. The test is classed as functional. The conditions noted are these: Escherichia coli, 442, 18 h.

≈ marks a conversion by molar mass, not a printed value. Calls of active or inactive are those of the source. The rule behind the calls is not given here.

Broadly, the MIC is the lowest concentration found to suppress growth. The low end stands for greater potency, the high end for weaker potency. Turning to `C[C@H]1[C@H](C)CC[C@]2(C)CC[C@]3(C(=O)O)C(=CC[C@@H]4[C@@]5(C)[C@H](O)C[C@H](O)C(C)(C)[C@@H]5CC[C@]43C)[C@H]12`, the MIC was 4 µg/mL (≈ 8.46 µM) in the test on Enterococcus faecium; 4 µg/mL (≈ 8.46 µM) with Staphylococcus aureus [1]; 4 µg/mL (≈ 8.46 µM) against Staphylococcus aureus [2]; 2 µg/mL (≈ 4.23 µM) with Bacillus subtilis; 16 µg/mL (≈ 33.8 µM) against Escherichia coli [4]. Also, the “inhibition zone (IZ)” value in the test on Candida albicans and in the test with Escherichia coli [3] was “inactive” in each case.

For `CO[C@H]1OC(=O)[C@H](C)[C@@H]2[C@@H]1[C@@H](CO)C[C@@H]2O` [CAIOPHORAENIN], the minimum inhibitory concentration (MIC) with Escherichia coli [5], in the test with Enterococcus faecium, in the test with Staphylococcus aureus [1], with Staphylococcus aureus [2], against Bacillus subtilis and in the test on Escherichia coli [4] was over 128 µg/mL each time. Further, the “inhibition zone (IZ)” value with Candida albicans and with Escherichia coli [3] was “inactive” in each case.

On to `C[C@@H]1[C@@H]2COC(=O)C[C@H]2C[C@@H]1O` [ISOBOONEIN], for which the MIC against Escherichia coli [5], in the test on Enterococcus faecium, with Staphylococcus aureus [1], in the test on Staphylococcus aureus [2], against Bacillus subtilis and in the test on Escherichia coli [4] was over 128 µg/mL each time. Further, the “inhibition zone (IZ)” value in the test with Candida albicans and with Escherichia coli [3] was “inactive” each time.

In the case of `CC1(C)S[C@@H]2[C@H](NC(=O)Cc3ccccc3)C(=O)N2[C@H]1C(=O)O` [PENICILLIN G], the minimal inhibitory concentration (MIC) in the test on Enterococcus faecium is 32 µg/mL (≈ 95.7 µM); in the test on Candida albicans (Candida albicans, 54, 18 h), over 128 µg/mL; against Staphylococcus aureus [1], 0.06 µg/mL (≈ 0.179 µM); in the test with Staphylococcus aureus [2], 128 µg/mL (≈ 383 µM); against Bacillus subtilis it was 32 µg/mL (≈ 95.7 µM); in the test with Escherichia coli [4], 4 µg/mL (≈ 12 µM).
